Test system: KRAS PDC multicell spheroid viability
Assay: Anticancer human tumor 521955-158-R6-J3-PDC patient-derived pancreatic carcinoma cell line growth inhibition [KRAS2]
Conditions: for IC50: curve of first compound; for viability, T/C: stronger effect = lower value
Outline: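 Combination screen of spheroid viability in tumor-cell co-cultures with endothelial (HUVEC) and mesenchymal stem cell stroma. Each agent was tested in half-log dilutions, topping at clinical Cmax or at 10 microM without a known Cmax.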

[1] = second compound 0.1 µM, first compound 0.0316 µM
[2] = second compound 0.1 µM, first compound 0.1 µM
[3] = second compound 0.1 µM, first compound 0.316 µM
[4] = second compound 0.1 µM, first compound 1 µM
[5] = second compound 0.1 µM, first compound 3.16 µM
[6] = second compound 0.1 µM, first compound 10 µM
[7] = second compound 0.316 µM, first compound 0.0316 µM
[8] = second compound 0.316 µM, first compound 0.1 µM
[9] = second compound 0.316 µM, first compound 0.316 µM
[10] = second compound 0.316 µM, first compound 1 µM
[11] = second compound 0.316 µM, first compound 3.16 µM
[12] = second compound 0.316 µM, first compound 10 µM
[13] = second compound 1 µM, first compound 0.0316 µM
[14] = second compound 1 µM, first compound 0.1 µM
[15] = second compound 1 µM, first compound 0.316 µM
[16] = second compound 1 µM, first compound 1 µM
[17] = second compound 1 µM, first compound 3.16 µM
[18] = second compound 1 µM, first compound 10 µM
[19] = second compound 3.16 µM, first compound 0.0316 µM
[20] = second compound 3.16 µM, first compound 0.1 µM
[21] = second compound 3.16 µM, first compound 0.316 µM
[22] = second compound 3.16 µM, first compound 1 µM
[23] = second compound 3.16 µM, first compound 3.16 µM
[24] = second compound 3.16 µM, first compound 10 µM
[25] = second compound 10 µM, first compound 0.0316 µM
[26] = second compound 10 µM, first compound 0.1 µM
[27] = second compound 10 µM, first compound 0.316 µM
[28] = second compound 10 µM, first compound 1 µM
[29] = second compound 10 µM, first compound 3.16 µM
[30] = second compound 10 µM, first compound 10 µM
[31] = second compound 0.0316 µM, first compound 0.0316 µM
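Note: drug exposure lasted seven days.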
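Throughout, for viability, T/C: 100% = DMSO vehicle wells and lower means fewer viable cells.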

For `CC(C)NCC(C(=O)N1CCN(c2ncnc3c2C(C)CC3O)CC1)c1ccc(Cl)cc1` (centres undefined) + CNCc1ccccc1-c1csc(C(C)Nc2nc(C)nc3cc(OC)c(OC)cc23)c1, the IC50 (second compound 0.1 µM) was > 10 µM, the IC50 (second compound 0.316 µM) was > 10 µM and the IC50 (second compound 1 µM) was > 10 µM. For the same compound, the IC50 (second compound 3.16 µM) was < 0.0316 µM, the IC50 (second compound 10 µM) was < 0.0316 µM and the viability, T/C [1] was 88.1%. It also gave a viability, T/C [2] of 84.2%, a viability, T/C [3] of 74.7% and a viability, T/C [4] of 69.8%. For the same compound, the viability, T/C [5] was 80.4%, the viability, T/C [6] was 70.2% and the viability, T/C [7] was 74.9%. The viability, T/C [8] was 80%, the viability, T/C [9] was 64.8% and the viability, T/C [10] was 64.5%. For the same compound, the viability, T/C [11] was 66.7%, the viability, T/C [12] was 63% and the viability, T/C [13] was 77.6%. The viability, T/C [14] was 62.7%, the viability, T/C [15] was 67.6% and the viability, T/C [16] was 64.3%. It also gave a viability, T/C [17] of 66.9%, a viability, T/C [18] of 61.4% and a viability, T/C [19] of 0.31%. For the same compound, the viability, T/C [20] was 0.37%, the viability, T/C [21] was 0.26% and the viability, T/C [22] was 0.31%. The viability, T/C [23] was 1.96%, the viability, T/C [24] was 0.86% and the viability, T/C [25] was 0.16%. It also gave a viability, T/C [26] of 0.14%, a viability, T/C [27] of 0.24% and a viability, T/C [28] of 0.25%. It also gave a viability, T/C [29] of 0.16% and a viability, T/C [30] of 0.27%.
`Cn1nccc1Nc1nccc(-c2cc3c(s2)C(C)(C)N(CCN2CCOCC2)C3=O)n1` + COc1cc2nc(C)nc(NC(C)c3cc(N)cc(C(F)(F)F)c3)c2cc1OC1CCOC1 was tested, and the IC50 (second compound 0.1 µM) was > 10 µM, the IC50 (second compound 0.316 µM) was > 10 µM and the IC50 (second compound 1 µM) was > 10 µM. For the same compound, the IC50 (second compound 3.16 µM) was 6.16 µM, the IC50 (second compound 10 µM) was < 0.0316 µM and the viability, T/C [1] was 88.5%. The viability, T/C [2] was 111%, the viability, T/C [3] was 96.4% and the viability, T/C [4] was 85.5%. For the same compound, the viability, T/C [5] was 79.6%, the viability, T/C [6] was 64.8% and the viability, T/C [7] was 86.5%. For the same compound, the viability, T/C [8] was 111%, the viability, T/C [9] was 103% and the viability, T/C [10] was 81.9%. It also gave a viability, T/C [11] of 71.2%, a viability, T/C [12] of 57.7% and a viability, T/C [13] of 79.1%. The viability, T/C [14] was 111%, the viability, T/C [15] was 99.6% and the viability, T/C [16] was 82.2%. It also gave a viability, T/C [17] of 65.4%, a viability, T/C [18] of 56.1% and a viability, T/C [19] of 83.6%. For the same compound, the viability, T/C [20] was 110%, the viability, T/C [21] was 94.8% and the viability, T/C [22] was 73.7%. It also gave a viability, T/C [23] of 55.9%, a viability, T/C [24] of 45.8% and a viability, T/C [25] of 26.8%. For the same compound, the viability, T/C [26] was 30%, the viability, T/C [27] was 16% and the viability, T/C [28] was 14.1%. It also gave a viability, T/C [29] of 6.82% and a viability, T/C [30] of 3.23%.
`COc1cc(Nc2ncc3c(n2)-c2ccc(Cl)cc2C(c2c(F)cccc2OC)=NC3)ccc1C(=O)O` + COc1cc2nc(C)nc(NC(C)c3cc(N)cc(C(F)(F)F)c3)c2cc1OC1CCOC1 was tested, and the IC50 (second compound 0.1 µM) was > 10 µM, the IC50 (second compound 0.316 µM) was > 10 µM and the IC50 (second compound 1 µM) was > 10 µM. For the same compound, the IC50 (second compound 3.16 µM) was > 10 µM, the IC50 (second compound 10 µM) was < 0.0316 µM and the viability, T/C [1] was 102%. The viability, T/C [2] was 88.3%, the viability, T/C [3] was 89% and the viability, T/C [4] was 88.9%. The viability, T/C [5] was 97.1%, the viability, T/C [6] was 90.4% and the viability, T/C [7] was 93.4%. The viability, T/C [8] was 86.3%, the viability, T/C [9] was 87.4% and the viability, T/C [10] was 99.2%. The viability, T/C [11] was 96.8%, the viability, T/C [12] was 88.6% and the viability, T/C [13] was 80.7%. For the same compound, the viability, T/C [14] was 84.4%, the viability, T/C [15] was 87.7% and the viability, T/C [16] was 89.3%. It also gave a viability, T/C [17] of 95.3%, a viability, T/C [18] of 83.4% and a viability, T/C [19] of 76%. The viability, T/C [20] was 72.5%, the viability, T/C [21] was 82.1% and the viability, T/C [22] was 78.5%. It also gave a viability, T/C [23] of 80.6%, a viability, T/C [24] of 71.2% and a viability, T/C [25] of 68.9%. It also gave a viability, T/C [26] of 23.1%, a viability, T/C [27] of 30% and a viability, T/C [28] of 31.2%. It also gave a viability, T/C [29] of 56.8% and a viability, T/C [30] of 23%.
In the case of `CC1OCC2(CCN(c3cnc(Sc4ccnc(N)c4Cl)c(N)n3)CC2)C1N` (centres undefined) + C=CC(=O)N1CCN(c2nc(OCC3CCCN3C)nc3c2CCN(c2cccc4cccc(C)c24)C3)CC1CC#N, the IC50 (second compound 0.0316 µM) is reported as > 10 µM, the IC50 (second compound 0.1 µM) is reported as > 10 µM and the IC50 (second compound 0.316 µM) is reported as > 10 µM. The IC50 (second compound 1 µM) was > 10 µM, the IC50 (second compound 3.16 µM) was < 0.0316 µM and the viability, T/C [31] was 88.4%. The viability, T/C (second compound 0.0316 µM, first compound 0.1 µM) was 103%, the viability, T/C (second compound 0.0316 µM, first compound 0.316 µM) was 92.2% and the viability, T/C (second compound 0.0316 µM, first compound 1 µM) was 96%. For the same compound, the viability, T/C (second compound 0.0316 µM, first compound 3.16 µM) was 114%, the viability, T/C (second compound 0.0316 µM, first compound 10 µM) was 109% and the viability, T/C [1] was 92.7%. It also gave a viability, T/C [2] of 97.4%, a viability, T/C [3] of 84.2% and a viability, T/C [4] of 86.1%. It also gave a viability, T/C [5] of 114%, a viability, T/C [6] of 114% and a viability, T/C [7] of 87.5%. For the same compound, the viability, T/C [8] was 86.1%, the viability, T/C [9] was 85% and the viability, T/C [10] was 90.4%. For the same compound, the viability, T/C [11] was 101%, the viability, T/C [12] was 106% and the viability, T/C [13] was 75.7%. The viability, T/C [14] was 68.7%, the viability, T/C [15] was 64.9% and the viability, T/C [16] was 67.4%. The viability, T/C [17] was 90.2%, the viability, T/C [18] was 113% and the viability, T/C [19] was 40.8%. The viability, T/C [20] was 32.3%, the viability, T/C [21] was 25.2% and the viability, T/C [22] was 37.3%. The viability, T/C [23] was 28.9% and the viability, T/C [24] was 23.7%.
`CC(=O)Nc1cccc(-n2c(=O)n(C3CC3)c(=O)c3c(Nc4ccc(I)cc4F)n(C)c(=O)c(C)c32)c1` + C=CC(=O)N1CCN(c2nc(OCC3CCCN3C)nc3c2CCN(c2cccc4cccc(C)c24)C3)CC1CC#N was tested, and the IC50 (second compound 0.0316 µM) was > 0.0316 µM, the IC50 (second compound 0.1 µM) was 0.0284 µM and the IC50 (second compound 0.316 µM) was 0.0212 µM. For the same compound, the IC50 (second compound 1 µM) was 0.00967 µM, the IC50 (second compound 3.16 µM) was < 0.0001 µM and the viability, T/C (second compound 0.0316 µM, first compound 0.0001 µM) was 109%. It also gave a viability, T/C (second compound 0.0316 µM, first compound 0.000316 µM) of 109%, a viability, T/C (second compound 0.0316 µM, first compound 0.001 µM) of 108% and a viability, T/C (second compound 0.0316 µM, first compound 0.00316 µM) of 83.2%. It also gave a viability, T/C (second compound 0.0316 µM, first compound 0.01 µM) of 83.9%, a viability, T/C [31] of 52.8% and a viability, T/C (second compound 0.1 µM, first compound 0.0001 µM) of 93.1%. It also gave a viability, T/C (second compound 0.1 µM, first compound 0.000316 µM) of 111%, a viability, T/C (second compound 0.1 µM, first compound 0.001 µM) of 100% and a viability, T/C (second compound 0.1 µM, first compound 0.00316 µM) of 81.4%. It also gave a viability, T/C (second compound 0.1 µM, first compound 0.01 µM) of 76.8%, a viability, T/C [1] of 46.8% and a viability, T/C (second compound 0.316 µM, first compound 0.0001 µM) of 89.4%. It also gave a viability, T/C (second compound 0.316 µM, first compound 0.000316 µM) of 96%, a viability, T/C (second compound 0.316 µM, first compound 0.001 µM) of 101% and a viability, T/C (second compound 0.316 µM, first compound 0.00316 µM) of 83.9%. The viability, T/C (second compound 0.316 µM, first compound 0.01 µM) was 66.8%, the viability, T/C [7] was 41.2% and the viability, T/C (second compound 1 µM, first compound 0.0001 µM) was 72.4%. It also gave a viability, T/C (second compound 1 µM, first compound 0.000316 µM) of 72.4%, a viability, T/C (second compound 1 µM, first compound 0.001 µM) of 87.1% and a viability, T/C (second compound 1 µM, first compound 0.00316 µM) of 65.4%. It also gave a viability, T/C (second compound 1 µM, first compound 0.01 µM) of 50.9%, a viability, T/C [13] of 38% and a viability, T/C (second compound 3.16 µM, first compound 0.0001 µM) of 40.3%. It also gave a viability, T/C (second compound 3.16 µM, first compound 0.000316 µM) of 52.7%, a viability, T/C (second compound 3.16 µM, first compound 0.001 µM) of 24.4% and a viability, T/C (second compound 3.16 µM, first compound 0.00316 µM) of 29.1%. The viability, T/C (second compound 3.16 µM, first compound 0.01 µM) was 2.14% and the viability, T/C [19] was 8.79%.
In the case of `CC1(C)CCC(CN2CCN(c3ccc(C(=O)NS(=O)(=O)c4ccc(NCC5CCOCC5)c([N+](=O)[O-])c4)c(Oc4cnc5[nH]ccc5c4)c3)CC2)=C(c2ccc(Cl)cc2)C1`, the viability, T/C (compound 0.0316 µM) is reported as 96.5% [middle of 5 runs], the viability, T/C (compound 0.1 µM) is reported as 96.3% [middle of 5 runs] and the viability, T/C (compound 0.316 µM) is reported as 90.6% [middle of 5 runs]. The viability, T/C (compound 1 µM) was 97.9% [middle of 5 runs].

From PubChem BioAssay AID1963864 (Molecular Pharmacology Branch, DTP, NCI, 2024)
